Like-named read-outs stand apart in the source and are kept apart here.
Assay: TRM-201-PK-102 single-dose four-period crossover pharmacokinetic study, fasted healthy subjects
Type: in vivo, human
Settings: human, plasma, oral
Procedure: A Single-Dose, Open-Label, Phase 1, Four-Period Crossover Pharmacokinetic Study of TRM-201 (Rofecoxib) 12.5 mg, 17.5 mg, 20 mg and 25 mg Administered to Healthy Subjects in a Fasting State, with Comparison to Historical Pharmacokinetic Parameters of Previously Marketed Rofecoxib (“TRM-201-PK-102” or “102 PK Study”)
This was a single-center, open-label four-period crossover PK study of TRM-201. The study included 24 subjects who received TRM-201 as a single dose of 12.5 mg, 17.5 mg, 20 mg and 25 mg to assess the PK of TRM-201 in healthy volunteers under fasted conditions. Subjects were randomized to one of four treatment sequences. The PK data from the current study along with the data from the TRM-201-PK-101 study (Example 4) was used to compare to historical pharmacokinetic parameters of previously marketed rofecoxib, all in a fasted state.
In each of the four dosing periods, subjects fasted overnight for at least 10 hours before study drug dosing. While fasting, subjects had nothing to eat and only water to drink. Water was permitted as desired, except for the period between 1 hour before and 1 hour after study drug dosing (excepting as permitted for dosing). After the 2-hour PK blood sample, subjects were allowed one 250-mL cup of clear apple juice. After the 4-hour PK blood sample, subjects were served a light lunch. Following the light lunch, subjects received standardized meals according to the clinic's standard procedures that were scheduled at consistent times and at least 15 minutes before or 15 minutes after PK sampling time points. Blood was withdrawn for PK analysis at predefined time points. For each dosing period the last time point was 120 hours after dosing with study drug (Day 6). After the 120 hour PK sample, the EOP procedures was completed, subjects remained in-clinic for the in-between dose period day (Days 7, 14, and 21) and began the next dosing period starting with an overnight fast for at least 10 hours on Day −1 of the subsequent dosing period. Pharmacokinetic and safety endpoints were evaluated.
The study drug, TRM-201, was an immediate-release tablet that contained 12.5 mg rofecoxib, 17.5 mg rofecoxib, 20 mg rofecoxib or 25 mg rofecoxib. The 7.25-mm diameter tablets were off-white, round, and uncoated with no markings. TRM-201 tablets were for oral administration.
For each sample, approximately 3 mL of blood were drawn. The samples were obtained by a straight stick or via an in-dwelling intravenous (IV) catheter in a forearm vein. Additional details for the collection, processing, storage, and shipping of PK samples were provided in the study manual.
Pharmacokinetic samples will be analyzed using a validated assay for rofecoxib in human plasma. Assay results and validation details will be provided in a separate bioanalytical report. The following PK parameters for rofecoxib will be calculated as primary endpoints using standard noncompartmental methods: AUC0-∞ and Cmax. Secondary endpoints include Tmax, and t1/2. Additional PK parameters (e.g., CL/F, and Vd/F) will also be calculated using standard noncompartmental methods.
Individual plasma concentrations for rofecoxib and PK sampling time deviation data will be presented in a data listing. Plasma concentration data will be summarized by time point using the following descriptive statistics: number of subjects, arithmetic mean, SD, coefficient of variation (CV), geometric mean, natural-log-scale SD, geometric CV, median, minimum, and maximum. Individual plasma concentration versus actual time profiles were presented on both linear and semilogarithmic scales. Additionally, arithmetic mean concentration versus scheduled time profiles were presented on linear scales and geometric means on semilogarithmic scales.
The PK parameters of rofecoxib were analyzed based on the actual sampling times. […]

[1] = 12.5 mg, read-out: arithmetic mean plasma concentration
[2] = 12.5 mg, read-out: geometric mean plasma concentration
[3] = 17.5 mg, read-out: geometric mean plasma concentration

CS(=O)(=O)c1ccc(C2=C(c3ccccc3)C(=O)OC2)cc1 [TRM-201, 4-[4-(methylsulfonyl)phenyl]-3-phenyl-2(5H)-furanone]
Cmax (12.5 mg, 102 study, body weight 77.1-90 kg, read-out: arithmetic mean Cmax): 127 ng/mL | AUC(0-inf) (12.5 mg, 102 study, body weight 77.1-90 kg, read-out: geometric mean AUC0-∞): 1690 ng·h/mL | Cmax (12.5 mg, 102 study, body weight 77.1-90 kg, read-out: geometric mean Cmax): 125 ng/mL | AUC(0-inf) (12.5 mg, 102 study, non-Hispanic or non-Latino subjects, read-out: arithmetic mean AUC0-∞): 1820 ng·h/mL | Cmax (12.5 mg, 102 study, non-Hispanic or non-Latino subjects, read-out: arithmetic mean Cmax): 146 ng/mL | AUC(0-inf) (12.5 mg, 102 study, non-Hispanic or non-Latino subjects, read-out: geometric mean AUC0-∞): 1680 ng·h/mL | Cmax (12.5 mg, 102 study, non-Hispanic or non-Latino subjects, read-out: geometric mean Cmax): 141 ng/mL | concentration at 15 minutes [1]: 1.03 ng/mL | concentration at 15 minutes [2]: 0.529 ng/mL | concentration at 45 minutes [1]: 56.8 ng/mL | concentration at 45 minutes [2]: 33.9 ng/mL | AUC(0-inf) (17.5 mg, 102 study only, read-out: arithmetic mean AUC0-∞): 3290 ng·h/mL | Cmax (17.5 mg, 102 study only, read-out: arithmetic mean Cmax): 236 ng/mL | AUC(0-inf) (17.5 mg, 102 study only, read-out: geometric mean AUC0-∞): 3110 ng·h/mL | Cmax (17.5 mg, 102 study only, read-out: geometric mean Cmax): 224 ng/mL | AUC(0-inf) (17.5 mg, 102 study, 18-40 years, read-out: arithmetic mean AUC0-∞): 2820 ng·h/mL | Cmax (17.5 mg, 102 study, 18-40 years, read-out: arithmetic mean Cmax): 237 ng/mL | AUC(0-inf) (17.5 mg, 102 study, 18-40 years, read-out: geometric mean AUC0-∞): 2750 ng·h/mL | Cmax (17.5 mg, 102 study, 18-40 years, read-out: geometric mean Cmax): 229 ng/mL | AUC(0-inf) (17.5 mg, 102 study, 41-52 years, read-out: arithmetic mean AUC0-∞): 3520 ng·h/mL | Cmax (17.5 mg, 102 study, 41-52 years, read-out: arithmetic mean Cmax): 232 ng/mL | AUC(0-inf) (17.5 mg, 102 study, 41-52 years, read-out: geometric mean AUC0-∞): 3160 ng·h/mL | Cmax (17.5 mg, 102 study, 41-52 years, read-out: geometric mean Cmax): 213 ng/mL | AUC(0-inf) (17.5 mg, 102 study, 53-60 years, read-out: arithmetic mean AUC0-∞): 3510 ng·h/mL | Cmax (17.5 mg, 102 study, 53-60 years, read-out: arithmetic mean Cmax): 239 ng/mL | AUC(0-inf) (17.5 mg, 102 study, 53-60 years, read-out: geometric mean AUC0-∞): 3470 ng·h/mL | Cmax (17.5 mg, 102 study, 53-60 years, read-out: geometric mean Cmax): 230 ng/mL | AUC(0-inf) (17.5 mg, 102 study, Black or African-American subjects, read-out: arithmetic mean AUC0-∞): 2840 ng·h/mL | Cmax (17.5 mg, 102 study, Black or African-American subjects, read-out: arithmetic mean Cmax): 217 ng/mL | AUC(0-inf) (17.5 mg, 102 study, Black or African-American subjects, read-out: geometric mean AUC0-∞): 2800 ng·h/mL | Cmax (17.5 mg, 102 study, Black or African-American subjects, read-out: geometric mean Cmax): 211 ng/mL | AUC(0-inf) (17.5 mg, 102 study, Hispanic or Latino subjects, read-out: arithmetic mean AUC0-∞): 3520 ng·h/mL | Cmax (17.5 mg, 102 study, Hispanic or Latino subjects, read-out: arithmetic mean Cmax): 258 ng/mL | AUC(0-inf) (17.5 mg, 102 study, Hispanic or Latino subjects, read-out: geometric mean AUC0-∞): 3330 ng·h/mL | Cmax (17.5 mg, 102 study, Hispanic or Latino subjects, read-out: geometric mean Cmax): 243 ng/mL | AUC(0-inf) (17.5 mg, 102 study, White subjects, read-out: arithmetic mean AUC0-∞): 3400 ng·h/mL | Cmax (17.5 mg, 102 study, White subjects, read-out: arithmetic mean Cmax): 241 ng/mL | AUC(0-inf) (17.5 mg, 102 study, White subjects, read-out: geometric mean AUC0-∞): 3200 ng·h/mL | Cmax (17.5 mg, 102 study, White subjects, read-out: geometric mean Cmax): 228 ng/mL | AUC(0-inf) (17.5 mg, 102 study, body weight 47-70 kg, read-out: arithmetic mean AUC0-∞): 3180 ng·h/mL | Cmax (17.5 mg, 102 study, body weight 47-70 kg, read-out: arithmetic mean Cmax): 261 ng/mL | AUC(0-inf) (17.5 mg, 102 study, body weight 47-70 kg, read-out: geometric mean AUC0-∞): 2930 ng·h/mL | Cmax (17.5 mg, 102 study, body weight 47-70 kg, read-out: geometric mean Cmax): 242 ng/mL | AUC(0-inf) (17.5 mg, 102 study, body weight 70.1-77 kg, read-out: arithmetic mean AUC0-∞): 3890 ng·h/mL | Cmax (17.5 mg, 102 study, body weight 70.1-77 kg, read-out: arithmetic mean Cmax): 254 ng/mL | AUC(0-inf) (17.5 mg, 102 study, body weight 70.1-77 kg, read-out: geometric mean AUC0-∞): 3730 ng·h/mL | Cmax (17.5 mg, 102 study, body weight 70.1-77 kg, read-out: geometric mean Cmax): 246 ng/mL | AUC(0-inf) (17.5 mg, 102 study, body weight 77.1-90 kg, read-out: arithmetic mean AUC0-∞): 2910 ng·h/mL | Cmax (17.5 mg, 102 study, body weight 77.1-90 kg, read-out: arithmetic mean Cmax): 200 ng/mL | AUC(0-inf) (17.5 mg, 102 study, body weight 77.1-90 kg, read-out: geometric mean AUC0-∞): 2850 ng·h/mL | Cmax (17.5 mg, 102 study, body weight 77.1-90 kg, read-out: geometric mean Cmax): 194 ng/mL | AUC(0-inf) (17.5 mg, 102 study, non-Hispanic or non-Latino subjects, read-out: arithmetic mean AUC0-∞): 3050 ng·h/mL | Cmax (17.5 mg, 102 study, non-Hispanic or non-Latino subjects, read-out: arithmetic mean Cmax): 214 ng/mL | AUC(0-inf) (17.5 mg, 102 study, non-Hispanic or non-Latino subjects, read-out: geometric mean AUC0-∞): 2910 ng·h/mL | Cmax (17.5 mg, 102 study, non-Hispanic or non-Latino subjects, read-out: geometric mean Cmax): 207 ng/mL | concentration at 15 minutes [3]: 0.669 ng/mL | concentration at 45 minutes [3]: 51.6 ng/mL
